Calls of active or inactive are those of the source. No rule for the calls is given here.
Test system: CCRIS mutagenicity, Ames/micronucleus/aberration tests
Assay: CCRIS mutagenicity studies
[1] = Test System: AMES SALMONELLA TYPHIMURIUM, Strain/Indicator: TA98, Metabolic Activation: NONE, Method: PREINCUBATION
[2] = Test System: AMES SALMONELLA TYPHIMURIUM, Strain/Indicator: TA100, Metabolic Activation: NONE, Method: PREINCUBATION
[3] = Test System: AMES SALMONELLA TYPHIMURIUM, Strain/Indicator: TA1535, Metabolic Activation: NONE, Method: PREINCUBATION
[4] = Test System: AMES SALMONELLA TYPHIMURIUM, Strain/Indicator: TA98, Metabolic Activation: NONE, Method: STANDARD PLATE
[5] = Test System: AMES SALMONELLA TYPHIMURIUM, Strain/Indicator: TA98, Metabolic Activation: RAT, LIVER, S-9, AROCLOR 1254, Method: STANDARD PLATE
[6] = Test System: AMES SALMONELLA TYPHIMURIUM, Strain/Indicator: TA100, Metabolic Activation: NONE, Method: STANDARD PLATE
[7] = Test System: AMES SALMONELLA TYPHIMURIUM, Strain/Indicator: TA100, Metabolic Activation: RAT, LIVER, S-9, AROCLOR 1254, Method: STANDARD PLATE

CCCCCCCCBr
mutagenic call [1]: inactive; negative
mutagenic call (Test System: AMES SALMONELLA TYPHIMURIUM, Strain/Indicator: TA98, Metabolic Activation: RAT LIVER S-9, PHENOBARBITAL AND BETA-NAPHTHOFLAVONE, Method: PREINCUBATION): inactive; negative
mutagenic call [2]: inactive; negative
mutagenic call (Test System: AMES SALMONELLA TYPHIMURIUM, Strain/Indicator: TA100, Metabolic Activation: RAT LIVER S-9, PHENOBARBITAL AND BETA-NAPHTHOFLAVONE, Method: PREINCUBATION): inactive; negative
mutagenic call (Test System: AMES SALMONELLA TYPHIMURIUM, Strain/Indicator: TA102, Metabolic Activation: NONE, Method: PREINCUBATION): inactive; negative
mutagenic call (Test System: AMES SALMONELLA TYPHIMURIUM, Strain/Indicator: TA102, Metabolic Activation: RAT LIVER S-9, PHENOBARBITAL AND BETA-NAPHTHOFLAVONE, Method: PREINCUBATION): inactive; negative
mutagenic call (Test System: AMES SALMONELLA TYPHIMURIUM, Strain/Indicator: TA104, Metabolic Activation: NONE, Method: PREINCUBATION): inactive; negative
mutagenic call (Test System: AMES SALMONELLA TYPHIMURIUM, Strain/Indicator: TA104, Metabolic Activation: RAT LIVER S-9, PHENOBARBITAL AND BETA-NAPHTHOFLAVONE, Method: PREINCUBATION): inactive; negative
mutagenic call [3]: inactive; negative
mutagenic call (Test System: AMES SALMONELLA TYPHIMURIUM, Strain/Indicator: TA1535, Metabolic Activation: RAT LIVER S-9, PHENOBARBITAL AND BETA-NAPHTHOFLAVONE, Method: PREINCUBATION): inactive; negative
mutagenic call (Test System: AMES SALMONELLA TYPHIMURIUM, Strain/Indicator: TA1537, Metabolic Activation: NONE, Method: PREINCUBATION): inactive; negative
mutagenic call (Test System: AMES SALMONELLA TYPHIMURIUM, Strain/Indicator: TA1537, Metabolic Activation: RAT LIVER S-9, PHENOBARBITAL AND BETA-NAPHTHOFLAVONE, Method: PREINCUBATION): inactive; negative
mutagenic call (Test System: E.COLI, Strain/Indicator: WP2UVRA/PKM101, Metabolic Activation: NONE, Method: PREINCUBATION): inactive; negative
mutagenic call (Test System: E.COLI, Strain/Indicator: WP2UVRA/PKM101, Metabolic Activation: RAT LIVER S-9, PHENOBARBITAL AND BETA-NAPHTHOFLAVONE, Method: PREINCUBATION): inactive; negative
mutagenic call (Test System: E.COLI, Strain/Indicator: WP2UVRA, Metabolic Activation: NONE, Method: PREINCUBATION): inactive; negative
mutagenic call (Test System: E.COLI, Strain/Indicator: WP2UVRA, Metabolic Activation: RAT LIVER S-9, PHENOBARBITAL AND BETA-NAPHTHOFLAVONE, Method: PREINCUBATION): inactive; negative

Cc1ccc(NCCO)cc1O
mutagenic call [4]: inactive; negative
mutagenic call [5]: inactive; negative
mutagenic call [6]: inactive; negative
mutagenic call [7]: inactive; negative
mutagenic call (Test System: AMES SALMONELLA TYPHIMURIUM, Strain/Indicator: TA1535, Metabolic Activation: NONE, Method: STANDARD PLATE): inactive; negative
mutagenic call (Test System: AMES SALMONELLA TYPHIMURIUM, Strain/Indicator: TA1535, Metabolic Activation: RAT, LIVER, S-9, AROCLOR 1254, Method: STANDARD PLATE): inactive; negative
mutagenic call (Test System: AMES SALMONELLA TYPHIMURIUM, Strain/Indicator: TA1537, Metabolic Activation: NONE, Method: STANDARD PLATE): inactive; negative
mutagenic call (Test System: AMES SALMONELLA TYPHIMURIUM, Strain/Indicator: TA1537, Metabolic Activation: RAT, LIVER, S-9, AROCLOR 1254, Method: STANDARD PLATE): inactive; negative
mutagenic call (Test System: AMES SALMONELLA TYPHIMURIUM, Strain/Indicator: TA1538, Metabolic Activation: NONE, Method: STANDARD PLATE): inactive; negative
mutagenic call (Test System: AMES SALMONELLA TYPHIMURIUM, Strain/Indicator: TA1538, Metabolic Activation: RAT, LIVER, S-9, AROCLOR 1254, Method: STANDARD PLATE): inactive; negative
mutagenic call (Test System: MOUSE LYMPHOMA, Strain/Indicator: L5178Y (TK+/TK-), Metabolic Activation: NONE, Method: SUSPENSION/PLATE): inactive; negative
mutagenic call (Test System: UDS HUMAN CELLS, Strain/Indicator: THY INCORP, Metabolic Activation: NONE, Method: LIQUID SCINTILLATION COUNTING): inactive; negative
mutagenic call (Test System: UDS HUMAN CELLS, Strain/Indicator: THY INCORP, Metabolic Activation: RAT, LIVER, S-9, PHENOBARBITAL AND BETA-NAPHTHOFLAVONE, Method: LIQUID SCINTILLATION COUNTING): inactive; negative

CN1C(CSCC(F)(F)F)Nc2cc(Cl)c(S(N)(=O)=O)cc2S1(=O)=O (configuration not stated)
mutagenic call (Test System: AMES SALMONELLA TYPHIMURIUM, Strain/Indicator: TA97, Metabolic Activation: HAMSTER, LIVER, S-9, AROCLOR 1254 (10 OR 30%), Method: PREINCUBATION): inactive; negative
mutagenic call (Test System: AMES SALMONELLA TYPHIMURIUM, Strain/Indicator: TA97, Metabolic Activation: NONE, Method: PREINCUBATION): inactive; negative
mutagenic call (Test System: AMES SALMONELLA TYPHIMURIUM, Strain/Indicator: TA97, Metabolic Activation: RAT, LIVER, S-9, AROCLOR 1254 (10 OR 30%), Method: PREINCUBATION): inactive; negative
mutagenic call (Test System: AMES SALMONELLA TYPHIMURIUM, Strain/Indicator: TA98, Metabolic Activation: HAMSTER, LIVER, S-9, AROCLOR 1254 (10 OR 30%), Method: PREINCUBATION): inactive; negative
mutagenic call [1]: inactive; negative
mutagenic call (Test System: AMES SALMONELLA TYPHIMURIUM, Strain/Indicator: TA98, Metabolic Activation: RAT, LIVER, S-9, AROCLOR 1254 (10 OR 30%), Method: PREINCUBATION): inactive; negative
mutagenic call (Test System: AMES SALMONELLA TYPHIMURIUM, Strain/Indicator: TA100, Metabolic Activation: HAMSTER, LIVER, S-9, AROCLOR 1254 (10 OR 30%), Method: PREINCUBATION): inactive; negative
mutagenic call [2]: inactive; negative
mutagenic call (Test System: AMES SALMONELLA TYPHIMURIUM, Strain/Indicator: TA100, Metabolic Activation: RAT, LIVER, S-9, AROCLOR 1254 (10 OR 30%), Method: PREINCUBATION): inactive; negative
mutagenic call (Test System: AMES SALMONELLA TYPHIMURIUM, Strain/Indicator: TA1535, Metabolic Activation: HAMSTER, LIVER, S-9, AROCLOR 1254 (10 OR 30%), Method: PREINCUBATION): inactive; negative
mutagenic call [3]: inactive; negative
mutagenic call (Test System: AMES SALMONELLA TYPHIMURIUM, Strain/Indicator: TA1535, Metabolic Activation: RAT, LIVER, S-9, AROCLOR 1254 (10 OR 30%), Method: PREINCUBATION): inactive; negative

COc1ccccc1NC(=O)C(N=Nc1ccc(-c2ccc(N=NC(C(C)=O)C(=O)Nc3ccccc3OC)c(Cl)c2)cc1Cl)C(C)=O (configuration not stated)
mutagenic call (Test System: AMES SALMONELLA TYPHIMURIUM, Strain/Indicator: TA98, Metabolic Activation: HAMSTER, LIVER, S-9, Method: PREINCUBATION (PRIVAL METHOD)): inactive; negative

CC(=O)OC(OC(C)=O)c1ccc([N+](=O)[O-])o1
mutagenic call (Test System: AMES SALMONELLA TYPHIMURIUM, Strain/Indicator: TA98(1,8-DNP6), Metabolic Activation: NONE, Method: STANDARD PLATE): active; positive
mutagenic call (Test System: AMES SALMONELLA TYPHIMURIUM, Strain/Indicator: TA98(1,8-DNP6), Metabolic Activation: RAT, LIVER, S-9, 3-METHYLCHOLANTHRENE, Method: STANDARD PLATE): active; positive
mutagenic call (Test System: AMES SALMONELLA TYPHIMURIUM, Strain/Indicator: TA98(NR), Metabolic Activation: NONE, Method: STANDARD PLATE): active; positive
mutagenic call (Test System: AMES SALMONELLA TYPHIMURIUM, Strain/Indicator: TA98(NR), Metabolic Activation: RAT, LIVER, S-9, 3-METHYLCHOLANTHRENE, Method: STANDARD PLATE): active; positive
mutagenic call [4]: active; positive
mutagenic call (Test System: AMES SALMONELLA TYPHIMURIUM, Strain/Indicator: TA98, Metabolic Activation: RAT, LIVER, S-9, 3-METHYLCHOLANTHRENE, Method: STANDARD PLATE): active; positive
mutagenic call (Test System: E. COLI, Strain/Indicator: WP2 UVRA, Metabolic Activation: NONE, Method: SPOT): active; positive

Cc1c2ccccc2c(C)c2ccccc12
mutagenic call [4]: active; positive
mutagenic call [5]: active; positive
mutagenic call [6]: inactive; negative
mutagenic call [7]: active; positive

CCCOS(=O)(=O)c1ccccc1
mutagenic call (End Point: IN VITRO MICRONUCLEUS, Test System: MOUSE LYMPHOMA L5178Y CELLS, Metabolic Activation: NONE): inactive; negative; positive only at highly/excessively cytotoxic doses
mutagenic call (End Point: IN VITRO MICRONUCLEUS, Test System: MOUSE LYMPHOMA L5178Y CELLS, Metabolic Activation: RAT, LIVER, S-9): inactive; negative; authors report results as weakly positive
mutagenic call [6]: active; positive
mutagenic call (Test System: AMES SALMONELLA TYPHIMURIUM, Strain/Indicator: TA100, Metabolic Activation: RAT, LIVER, S-9, Method: STANDARD PLATE): active; positive

Source: PubChem BioAssay AID1259407 (Chemical Carcinogenesis Research Information System (CCRIS), 2018)
